Measurements as given in US9879050B2, “Substituted urea depsipeptide analogs as activators of the CLPP endopeptidase” (priority 2013, dated 2018).
Values after ≈ are worked out from the molar mass of the structure shown. Where two headings read alike, the source gives them in different places.

Assays:
S. aureus ClpP (Sa-ClpP) = molecular target: T1, S. aureus ClpP (Sa-ClpP) (Staphylococcus aureus, UniProt Q2G036); experiment: ClpP activation, casein-BODIPY digestion assay (first described method); type: biochemical; settings: first described ClpP activation assay (**); 10 μM saClpP, 25 μg/ml BODIPY FL casein, 37° C.; read-out: ClpP Activation EC50
T1 construct: made in house; host or cells: E. coli BL21 (DE3)
Experimental: The compounds were assayed in a casein digestion assay in order to determine their effect on ClpP activation. Briefly, the assay was carried out using S. aureus ClpP (“Sa-ClpP”) overexpressed in E. coli BL21 (DE3) and purified in a two-step process. Purity of the protein was assessed through SDS PAGE analysis. EC50 evaluations were conducted in triplicate in a 20 μl assay format using a method adapted from Maurizi et al. (Methods Enzymol. (1994) 244:314-331.). Each well contained 10 μM saClpP, 25 μg/ml BODIPY FL casein (Invitrogen Corporation, San Diego, Calif.), and test compound in concentrations ranging between 0-100 μM in assay buffer (50 mM Tris pH 8, 200 mM KCl, and 1 mM TCEP). The reaction took place at 37° C. Fluorescence (excitation 485 nm; emission 528 nm) was measured in five minute intervals over a 45 min period using a BioTek HT fluorescence microplate reader (BioTek Instruments, Inc., Winooski, Vt.). Velocity of each reaction was calculated and data was fit to a dose response curve using GraphPad Prism® software (GraphPad Software, Inc., La Jolla, Calif.). EC50 is the effective concentration of compound which causes 50% activation of S. aureus ClpP in the foregoing BODIPY FL casein assay.

Sa-ClpP [1] = molecular target: T2, Sa-ClpP (Staphylococcus aureus, UniProt Q2G036); experiment: ADEP displacement fluorescence polarization assay; type: binding, S. aureus; settings: 1 μM Sa-ClpP, 50 nM FP probe ADEP 2591; read-out: ADEP Displacement IC50
T2 construct: made in house; host or cells: E. coli BL21 (DE3)
Method in brief: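 Displacement of TAMRA-labelled ADEP 2591 probe (50 nM) from 1 μM Sa-ClpP, pre-equilibrated 1 h in Tris·HCl pH 8.0 with 2% DMSO, then 120 min at room temperature with compound, triplicate. Polarization (mP) read ex 530/em 579 nm, normalised to 20 μM ADEP 2378 and DMSO controls; four-parameter fit.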

[2] = Cytotoxicity assay, CellTiter-Glo cell viability; type: cell-based; settings: African green monkey
Method in brief: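 Vero cells seeded overnight at 37 °C in DMEM with 10% FBS, then exposed to serial dilutions of compound for 72 h. Viability read by CellTiter-Glo luminescence; IC50 from duplicates, given as the range of two independent experiments.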

S. pyogenes ATCC 700294 = experiment: Minimal inhibitory concentration, microbroth dilution; type: cell-based; settings: Streptococcus pyogenes, ATCC700294, read-out: Minimal Inhibitory Concentration S. pyogenes ATCC 700294
Method in brief: (§1)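 Twofold serial dilutions in broth per CLSI M7-A7 microbroth dilution, incubated aerobically overnight at 37° C. MIC read visually as lowest concentration preventing bacterial growth.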

S. pneumoniae R6 = experiment: as above; type: cell-based; settings: Streptococcus pneumoniae, R6, read-out: Minimal Inhibitory Concentration S. pneumoniae R6
Method in brief: as §1

S. aureus USA 300 ΔClpP = experiment: as above; type: cell-based, Staphylococcus aureus; settings: ClpP inactivated strain
Method in brief: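 Following CLSI M7-A7 microbroth dilution, twofold serial dilutions of compound (top final concentration 200 μM) were combined with an equal volume of broth inoculum at about 10^5 cfu/mL. Plates were incubated aerobically at 37 °C overnight, and the MIC was the lowest concentration preventing visible growth.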

B. subtilis ATCC 23857 = experiment: as above; type: cell-based; settings: Bacillus subtilis, ATCC23857, read-out: Minimal Inhibitory Concentration B. subtilis ATCC 23857
Experimental: (§2) Minimal inhibitory concentrations (“MICs”) were determined using the microbroth dilution method according to Clinical Laboratory Standards Institute (CLSI; National, C.F. C. L. S., Methods for Dilution Antimicrobial Susceptibility Tests for Bacteria Grow aerobically-Seventh Edition: Approved Standard M7-A7, CLSI, Wayne, Pa., USA, 2008) and were read by visual inspection. Two fold serial dilutions of test compound in 100 μL of the appropriate broth media were first prepared in 96-well round bottom microtiter plates (Nalgene Nunc International, Rochester, N.Y., USA). An equivalent volume (100 μL) of bacterial broth inocula containing approximately 10^5 bacterial cfu/mL was added to each well to give final concentrations of test compound starting at 200 μM. The plates were then incubated aerobically at 37° C. All strains were incubated overnight. After incubations, in all cases the MIC was recorded as the lowest concentration of drug that prevented bacterial growth. The bacterial strains for which MIC was determined as described in Table 4.

S. aureus ATCC 29213 = experiment: as above; type: cell-based; settings: Staphylococcus aureus, ATCC29213, read-out: Minimal Inhibitory Concentration S. aureus ATCC 29213
Experimental: as §2

Sa-ClpP [3] = molecular target: T2, Sa-ClpP; experiment: ClpP activation, EnzCheck Protease Assay with Bodipy-FL casein (second described method); type: biochemical, S. aureus; settings: read-out: ClpP Activation EC50 (converted)
Method in brief: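 Sa-ClpP (2 μM in master mix) with Bodipy-FL casein (2 μM in master mix) in Tris-HCl pH 8.0, 0.01% Triton X-100, compounds in 2% DMSO, triplicate. Fluorescence (ex 485/em 520 nm) followed 30 min; degradation slopes normalized to ADEP4 and DMSO controls, EC50 and % activation by four-parameter fit.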

[4] = Vero cells, 72 hours, read-out: Cytotoxicity IC50

T2 sequence (Q2G036 whole entry): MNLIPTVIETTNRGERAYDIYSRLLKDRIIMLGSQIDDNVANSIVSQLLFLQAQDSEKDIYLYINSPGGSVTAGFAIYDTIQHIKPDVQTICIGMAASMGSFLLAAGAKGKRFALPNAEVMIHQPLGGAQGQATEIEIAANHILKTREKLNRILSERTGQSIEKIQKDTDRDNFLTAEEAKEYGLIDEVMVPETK
T1 sequence (Q2G036 whole entry): as above

SMILES	EC50 (S. aureus ClpP (Sa-ClpP)) [µM]	IC50 (Sa-ClpP [1]) [µM]	IC50 at 72 h [2] [µM]	MIC (S. pyogenes ATCC 700294) [µM]	MIC (S. pneumoniae R6) [µM]	Minimal Inhibitory Concentration S. aureus USA 300 ΔClpP (S. aureus USA 300 ΔClpP) [µM]	MIC (B. subtilis ATCC 23857) [µM]	MIC (S. aureus ATCC 29213) [µM]	EC50 (Sa-ClpP [3]) [µM]	IC50 at 72 h [2, 4] [µM]
C[C@@H]1C[C@H]2C(=O)OC[C@H](NC(=O)[C@H](Cc3cc(F)cc(F)c3)NC(=O)Nc3ccc(OC(F)(F)F)cc3)C(=O)N3CCC[C@H]3C(=O)N3CCCC[C@H]3C(=O)N[C@@H](C)C(=O)N2C1 [Compound 13, (S)-3-(3,5-Difluorophenyl)-N-((2R,6S,8aS,14aS,20S,23aS)-2,6-Dimethyl-5,8,14,19,23-Pentaoxooctadecahydro-1H,5H,14H,19H-Pyrido[2,1-I]Dipyrrolo[2,1-C:2′,1′-L][1]Oxa[4,7,10,13]Tetraazacyclohexadecin-20-Yl)-2-(3-(4-(Trifluoromethoxy)Phenyl)Ureido)Propanamide]	3.2 ± 0.6	5.69 ± 0.5	70.9 ± 8.9	–	–	–	–	–	–	–
Cc1ccc(NC(=O)N[C@@H](Cc2cc(F)cc(F)c2)C(=O)N[C@@H]2C(=O)N3CCCC3C(=O)N3CCOCC3C(=O)N[C@@H](C)C(=O)N3C[C@@H](C)CC3C(=O)O[C@H]2C)cc1 (stereo partly drawn) [Compound 33, (S)-3-(3,5-Difluorophenyl)-2-(3-(P-Tolyl)Ureido)-N-((6aS,12S,13S,1 5aS,17S,21S,23aS)-13,17,21-Trimethyl-6,11,15,20,23-Pentaoxooctadecahydro-6H,11H,15H-[1,4]Oxazino[3,4-I]Dipyrrolo[2,1-C:2′,1′-L][1]Oxa[4,7,10,13]Tetraazacyclohexadecin-12-Yl)Propanamide]	–	5.6 ± 0.3	–	0.39 (≈ 0.316 µg/mL)	0.098 (≈ 0.0794 µg/mL)	200	0.2 (≈ 0.162 µg/mL)	0.2 (≈ 0.162 µg/mL)	0.39 ± 0.02	41 ± 4.3
Cc1ccc(NC(=O)N[C@@H](Cc2cc(F)cc(F)c2)C(=O)N[C@@H]2C(=O)N3CCCC3C(=O)N3CCCCC3C(=O)N[C@@H](C)C(=O)N3C[C@H](C)CC3C(=O)O[C@H]2C)cc1 (stereo partly drawn) [Compound 39, (S)-3-(3,5-Difluorophenyl)-2-(3-(P-Tolyl)Ureido)-N-((2R,6S,8aS,14aS,20S,21S,23aS)-2,6,21-Trimethyl-5,8,14,19,23-Pentaoxooctadecahydro-1H,5H,14H,19H-Pyrido[2,1-I]Dipyrrolo[2,1-C:2′,1′-L][1]Oxa[4,7,10,13]Tetraazacyclohexadecin-20-Yl)Propanamide]	–	9 ± 0.4	–	0.2 (≈ 0.162 µg/mL)	0.05 (≈ 0.0404 µg/mL)	100	0.02 (≈ 0.0162 µg/mL)	0.05 (≈ 0.0404 µg/mL)	0.48 ± 0.03	40 ± 4.1
Cc1ccc(NC(=O)N[C@@H](Cc2cc(F)cc(F)c2)C(=O)N[C@@H]2C(=O)N3CCCC3C(=O)N(C)[C@@H](C)C(=O)N[C@@H](C)C(=O)N3C[C@@H](C)CC3C(=O)O[C@H]2C)cc1 (stereo partly drawn) [Compound 26, (2S)-3-(3,5-Difluorophenyl)-N-((2S,6S,9S,11aS,17S,18S)-2,6,9,10,18-Pentamethyl-5,8,11,16,20-Pentaoxohexadecahydro-1H,5H,16H-Dipyrrolo[2,1-C:2′,1′-L][1]Oxa[4,7,10,13]Tetraazacyclohexadecin-17-Yl)-2-(3-(P-Tolyl)Ureido)Propanamide]	–	8.2 ± 0.3	–	0.5 (≈ 0.391 µg/mL)	0.125 (≈ 0.0977 µg/mL)	200	0.03 (≈ 0.0235 µg/mL)	0.2 (≈ 0.156 µg/mL)	0.29 ± 0.01	40.5 ± 3.8
Cc1ccc(NC(=O)N[C@@H](Cc2ccccc2)C(=O)N[C@H]2COC(=O)C3C[C@H](C)CN3C(=O)[C@H](C)NC(=O)C3CCCCN3C(=O)C3CCCN3C2=O)cc1 (stereo partly drawn) [Compound 43, (S)—N-((2S,6S,8aS,14aS,20S,23aS)-2,6-Dimethyl-5,8,14,19,23-Pentaoxooctadecahydro-1H,5H,14H,19H-Pyrido[2,1-I]Dipyrrolo[2,1-C:2′,1′-L][1]Oxa[4,7,10,13]Tetraazacyclohexadecin-20-Yl)-3-Phenyl-2-(3-(P-Tolyl)Ureido)Propanamide]	–	6.57 ± 0.2	–	0.8 (≈ 0.606 µg/mL)	0.2 (≈ 0.152 µg/mL)	>200	0.4 (≈ 0.303 µg/mL)	1.6 (≈ 1.21 µg/mL)	0.37 ± 0.03	74.5 ± 8.8
Cc1ccc(NC(=O)N[C@@H](Cc2cc(F)cc(F)c2)C(=O)N[C@@H]2C(=O)N3CCCC3C(=O)N(C)[C@@H](C)C(=O)N[C@@H](C)C(=O)N3CCCC3C(=O)O[C@H]2C)cc1 (stereo partly drawn) [Compound 25, (2S)-3-(3,5-Difluorophenyl)-N-((6S,9S,11aS,17S,18S)-6,9,10,18-Tetramethyl-5,8,11,16,20-Pentaoxohexadecahydro-1H,5H,16H-Dipyrrolo[2,1-C:2′,1′-L][1]Oxa[4,7,10,13]Tetraazacyclohexadecin-17-Yl)-2-(3-(P-Tolyl)Ureido)Propanamide]	–	8.9 ± 0.3	–	1 (≈ 0.768 µg/mL)	0.254 (≈ 0.195 µg/mL)	200	0.02 (≈ 0.0154 µg/mL)	0.78 (≈ 0.599 µg/mL)	0.48 ± 0.03	10.8 ± 1
Cc1ccc(NC(=O)N[C@@H](Cc2cc(F)cc(F)c2)C(=O)N[C@H]2COC(=O)C3CC(C)(C)CN3C(=O)[C@H](C)NC(=O)C3CCCCN3C(=O)C3CCCN3C2=O)cc1 (stereo partly drawn) [Compound 49, (S)-3-(3,5-Difluorophenyl)-2-(3-(P-Tolyl)Ureido)-N-((6S,8aS,14aS,20S,23aS)-2,2,6-Trimethyl-5,8,14,19,23-Pentaoxooctadecahydro-1H,5H,14H,19H-Pyrido[2,1-I]Dipyrrolo[2,1-C:2′,1′-L][1]Oxa[4,7,10,13]Tetraazacyclohexadecin-20-Yl)Propanamide]	–	12.7 ± 0.2	–	25 (≈ 20.2 µg/mL)	6.3 (≈ 5.09 µg/mL)	100	0.4 (≈ 0.323 µg/mL)	12.5 (≈ 10.1 µg/mL)	2.3 ± 0.2	–
